Laboratory results from patent US10308938B2, “Compositions and methods to activate or inhibit toll-like receptor signaling” (priority 2014, dated 2019).
Oligonucleotides are written 5' to 3', each unit as a sugar letter and its base; * is a phosphorothioate linkage, no mark a phosphodiester; rarer units and linkages stand in square brackets, end groups in braces. Plain capitals give the bases only. d = 2'-deoxy (DNA)

What was measured:
CD4^+ T cells [1] = assay: Intracellular calcium measurement (INDO-1AM); format: cell-based, human
Experimental: Intracellular calcium measurements. Ex vivo isolated CD4^+ T cells were labeled with 5 μM INDO-1AM for one hour at 37° C. in PBS, 1 mM Ca^2+. Cells were washed to remove traces of INDO-1AM, resuspended in buffer at 10^6 cells/ml and incubated for 30 minutes at 37° C. before analysis. When necessary, IRS661 was added at the indicated concentration during the 30 minute incubation. For acquisition, the sample was acquired for approximately 3 minutes to obtain basal levels of calcium and subsequently IMQ or other reagents were added at the indicated concentrations. Samples were acquired for a minimum of 10 minutes on a BD Fortessa instrument and analysed with FlowJo software.

CD4^+ T cells [2] = assay: Anergy-related gene expression, TaqMan real-time PCR; format: cell-based, human; conditions: preincubation with IRS661 before IMQ
Source text: (§1) Quantification of mRNA expression levels by RT-PCR. RNA was isolated using QIAGEN RNeasy Micro Plus Kit (QIAGEN, Valencia, Calif.), following manufacturer's guidelines and converted to cDNA by reverse transcription (RT) with random hexamers and Multiscribe RT (TQMN, Reverse Transcription Reagents; Applied Biosystems, Foster City, Calif.). For mRNA gene expression assays, probes were purchased from Applied Biosystems (Table 2) and the reactions were set up following manufacturer's guidelines and run on a StepOne Real-Time PCR System (Applied Biosystems). Values are represented as the difference in Ct values normalized to β2-microglobulin for each sample as per the following formula: Relative RNA expression=(2^−dCt)×1000.
To examine whether TLR7 stimulation and subsequent NFAT dephosphorylation induces the expression of anergy-related genes, CD4^+ T cells were incubated for 2-16 hours with IMQ in the presence or absence of the TLR7 inhibitory sequence IRS661 and RNA was isolated to examine the hypothesis that TLR7 engagement induced expression of anergy-related genes previously described. As a control for anergy-related gene expression, CD4^+ T cells were incubated with either ionomycin and PMA or ionomycin alone. […] The effect observed in the regulation of these genes was TLR7-specific, as preincubation of CD4^+ T cells with IRS661 before IMQ treatment abrogated the increase in anergy-related gene expression.

memory T cells = assay: IMQ pretreatment, washout, rest and restimulation with anti-CD3 and anti-CD28; format: cell-based, human; conditions: IRS661 pretreated cells
Experimental: (§2) Enzyme-linked immunosorbent assay.
To determine if pretreatment of CD4^+ T cells with IMQ would be sufficient to diminish their subsequent cytokine secretion and proliferative response to a full stimulation, memory T cells were pre-treated with IMQ for 2 hours and rested for 12 hours after washout to remove traces of IMQ and then stimulated with anti-CD3 and anti-CD28 for 3 days.

HIV-1^+CD4^+ T cells = assay: Anergy-related gene expression in in vitro HIV-1-infected CD4+ T cells; format: cell-based, human; conditions: day seven after infection
Source text: as §1
To confirm this observation, the expression of anergy-related genes in in vitro HIV-1-infected CD4^+ T cells from five healthy donors in the presence of IRS661 (to inhibit TLR7) or a control sequence at day seven after infection was examined (FIG. 40).

HIV-1 (NL-432) = assay: HIV-1 infection of humanized MISTRG mice, viral load; format: in vivo, mouse; conditions: 20 μM IRS661 at day 0 or day 14 after infection
Experimental: Mouse experiments. MISTRG mice (Nature Biotechnology 2014; 32; 364-372) were infected with HIV-1 (50 ng p24) at day 0 in the presence of 20 μM IRS661 or control sequence (at either day 0 or day 14). Serum was obtained at different time points and RNA was isolated by Direct-zol RNA MiniPrep kit (Zymo Research). Viral load was measured by Gag amplification by Real Time PCR
In order to test the role of TLR7 inhibition in HIV-1 infection in vivo, a humanized mouse model (Rongvaux et al., Nat. Biotech., 32:364-372 (2014)) was used. Three groups of mice were infected with HIV-1 (NL-432): one control group, another group that was injected with IRS661 at the same time of HIV-1 infection (day 0), and a third group where IRS661 was injected at the peak of infection (day 14 after HIV-1 infection). […] For those mice that were injected with IRS661 at day 14 after infection (FIG. 55, white dots), viral load was measured at day 21 after infection. One mouse from the control group (black dots) died at day 17.

HIV-1 [3] = conditions: supernatants every three days, 14 days
Source text: CD4^+ T cells isolated from HIV-1 infected patients (Table 3) were stimulated in the presence of IRS661 (FIG. 50) or were transduced with two TLR7-specific shRNA (FIG. 51) with supernatant collections every three days for a total of 14 days to measure virus concentration by p24 ELISA.

HIV-1 [4] = conditions: day seven; compared to control cells
Experimental: Furthermore, proviral integrated DNA load was measured at day seven after stimulation in the presence of IRS661 or a control sequence (FIG. 52) and after transduction with TLR7-specific shRNA (FIG. 53) to monitor the cellular viral reservoir.

CD4^+ T cells [5] = assay: Proliferation of CFSE-labeled CD4+ T cells stimulated with anti-CD3 and anti-CD28 in the presence of TLR ligands; format: cell-based, human; conditions: for proliferation of CD4+ T cells (frequency of proliferating cells): compared to control; for inhibition of proliferation, level relative to IMQ: three days
Source text: Cell isolation and FACS sorting of T cell populations. Peripheral blood mononuclear cells (PBMC) were isolated from healthy donors by Ficoll Hypaque gradient centrifugation. Total CD4^+ T cells were isolated by negative selection using CD4^+ T cell isolation kit (StemCell Technologies, Vancouver, BC) and stained for fluorescence-activated cell sorting (FACS) with the following antibodies: anti-CD45RO (clone UCHL1), CD45RA (clone H1100), CD25 (clone M-A251) (all from BD Biosciences) and CD127 (clone eBioRDR5) from eBioscience (San Diego, Calif.). The Treg (CD4^+CD25^hiCD127^low/neg) memory T cell (CD4^+CD45RA^−CD45RO^+CD25^low/neg+) and naïve T cell (CD4^+CD45RA^+CD45RO^−CD25^low/neg) populations were sorted on a FACS Aria (BD Biosciences). Unless specified, CD4^+ T cells used in the experiments were Treg-depleted CD4^+ T cells and they were sorted as CD4^+CD25^pos/lowCD127^+. The purity of the sorted CD4^+ T cell population was >98% as assessed by CD3 and CD4 staining after sort. CD14^+ cells were isolated by positive selection using EasySep™ Human CD14 Positive Selection Kit (StemCell Technologies).
(§3) Cell activation and intracellular staining.
While examining the costimulatory role of TLR on CD4^+ T cells, it was unexpectedly discovered that entry of CD4^+ cells into cell cycle with T cell receptor cross-linking and anti-CD28 was blocked by TLR7 engagement. Specifically, CD4^+ T cells were stimulated with anti-CD3 and anti-CD28 in the presence of different TLR agonists followed by analysis of proliferation and cytokine secretion.

CD4^+ T cells [6] = assay: Cytokine secretion by stimulated CD4+ T cells, ELISA; format: cell-based, human; conditions: day 3 after stimulation
Source text: as §3, §2

HIV-1NL-D = assay: HIV-1 in vitro infection of CD4+ T cells; format: cell-based; conditions: for frequency of HIV-1-infected CD4+ T cells: treatment before infection, MOI 0.001
Experimental: Preparation of HIV-1 virus stocks. HIV-1 proviral DsRed-tagged DNA pNL-D (derived from the prototype HIV-1 proviral DNA pNL432) was kindly provided by Dr. Yasuko Tsunetsugu-Yokota. 293T cells were used to prepare viral stocks following published protocols with minor modifications. In brief, 293T cells were plated at 0.5×10^6/well in 12-well plates and transfected with 2 μg pNL-D using Lipofectamine 2000 (Invitrogen) for 48 hours. Culture supernatant was treated with benzonase (1U/ml) for 30 minutes at 37 C, cleared by filtration and titrated on 293T cells. Stocks were stored at −80 C.
HIV-1 in vitro infection. CD4^+ T cells were stimulated with anti-CD3 (1 μg/ml) and anti-CD28 (1 μg/ml) for 48 hours and subsequently infected with HIV-1 at a MOI of 0.001 (concentration within the physiological range). Viability and cytokine secretion was measured every 48 hours for a total of 11 days after infection.
For HIV-1 infection on TLR7-deficient cells, CD4^+ T cells were stimulated as above and transduced with the corresponding lentiviral particles. 48 hours after transduction, the cells were infected with HIV-1NL-D at a MOI of 0.001. Viability and frequency of HIV-1-infected cells were measured at different time points by LIVE/DEAD cell dye staining and fixation with 1% PFA (to avoid DsRed signal loss). For intracellular staining after infection, the cells were restimulated with PMA and Ionomycin in the presence of GolgiStop for 4 hours and the staining was performed as recommended by Grupillo et al.

Row | Compound | proliferation of CD4+ T cells (frequency of proliferating cells) (CD4^+ T cells [5]) | IFNγ secretion (CD4^+ T cells [6]) | IL-2 secretion (CD4^+ T cells [6]) | IL-4 secretion (CD4^+ T cells [6]) | IL-17 secretion (CD4^+ T cells [6]) | also measured
1 | 5′-TGCTTGCAAGCTTGCAAGCA-3′ (DNA dT*dG*dC*dT*dT*dG*dC*dA*dA*dG*dC*dT*dT*dG*dC*dA*dA*dG*dC*dA) [IRS661] | – | – | – | – | – | increase in calcium concentration upon IMQ stimulation (CD4^+ T cells [1]; pre-incubation with IRS661): impaired; IMQ-induced increase in anergy-related gene expression (CD4^+ T cells [2]): abrogated; IMQ-induced decrease of IFNγ production (memory T cells): not observed; IMQ-induced decrease of IL-2 production (memory T cells): not observed; expression of 12 anergy-related genes in HIV-1+CD4+ T cells (HIV-1^+CD4^+ T cells): did not upregulate any of these genes; HIV-1 viral load (HIV-1 (NL-432)): decreases; concentration of p24 in culture (HIV-1 [3]): strongly decreased; proviral DNA load (HIV-1 [4]): dramatic decrease
2 | CCCCNc1nc(N)c2[nH]c(=O)n(Cc3ccc(C(=O)NCC(=O)O)cc3)c2n1 [CL264] | significant decrease | inhibited | inhibited | inhibited | inhibited | –
3 | CCNCc1nc2c(N)nc3ccccc3c2n1CC(C)(C)O [Gardiquimod] | significant decrease | inhibited | inhibited | inhibited | inhibited | inhibition of proliferation, level relative to IMQ (CD4^+ T cells [5]): comparable to IMQ treatment
4 | C=CCn1c(=O)n([C@@H]2O[C@H](CO)[C@@H](O)[C@H]2O)c2nc(N)[nH]c(=O)c21 [Loxoribine] | significant decrease | inhibited | inhibited | inhibited | inhibited | inhibition of proliferation, level relative to IMQ (CD4^+ T cells [5]): comparable to IMQ treatment
5 | COc1cc(N(CC(=O)OCOC(C)=O)CC(=O)OCOC(C)=O)c2nc(COc3cc(C)ccc3N(CC(=O)OCOC(C)=O)CC(=O)OCOC(C)=O)ccc2c1 [Quin-2 AM] | – | – | – | – | – | frequency of viable cells (HIV-1NL-D): significantly decreased; frequency of HIV-1-infected CD4+ T cells (HIV-1NL-D): marked decrease
6 | C[C@H](CCC(=O)O)C[C@H](C)C[C@H](C)C(=O)/C=C(\O)[C@H](C)C[C@H](C)C/C=C/[C@@H](C)[C@@H](O)[C@@H](C)[C@@H](O)C[C@@H]1CC[C@@](C)([C@H]2CC[C@@](C)([C@@H](C)O)O2)O1 [ionomycin] | – | – | – | – | – | frequency of HIV-1-infected CD4+ T cells (HIV-1NL-D): increased
7 | Poly(I:C) | – | – | – | – | – | intracellular calcium concentration (CD4^+ T cells [1]; INDO-1AM ratio over time): not observed
